Drawing on DBAASP, this text covers MIC for eight molecules.

The term MIC denotes the least concentration at which growth counts as inhibited.

Each structure is given as a SMILES string. Values after ≈ are worked out from the molar mass of the structure shown. Values joined by “and” are separate entries in the source; they are usually repeats but may differ in a detail not shown here. Equal values may be shown once.

Some test systems named below: Staphylococcus aureus; Escherichia coli; Pseudomonas aeruginosa.
Assay in all cases: ≥ marks a high value that may be exact or a test limit, other limits are often not marked, values filed in µg/mL are converted to µM
Assay [1] has as its system Staphylococcus aureus ATCC 29213.
The subject of assay [2] is Escherichia coli ATCC 25922.
The test system of assay [3] is Enterococcus faecalis ATCC 29212.
Assay [4] relates to Pseudomonas aeruginosa ATCC 27853.

Turning to `CC[C@H](C)[C@H](NC(=O)[C@H](CCCN=C(N)N)NC(=O)[C@H](CCC(N)=O)NC(=O)[C@@H](NC(=O)[C@@H](NC(=O)[C@H](CCCN=C(N)N)NC(=O)[C@H](CCCCN)NC(=O)[C@@H](N)Cc1ccccc1)[C@@H](C)CC)C(C)C)C(=O)N[C@@H](CCCCN)C(=O)N[C@@H](CC(=O)O)C(=O)N[C@@H](Cc1cnc[nH]1)C(=O)N[C@@H](CC(C)C)C(=O)N[C@@H](CCCN=C(N)N)C(=O)O` [FKRIVQRIKDHLR], the results for the MIC in assay [1] and in assay [2] were over 40 µM and 10 µM (≈ 17.1 µg/mL), respectively.

On to `CC[C@H](C)[C@H](NC(=O)CN)C(=O)N[C@@H](CC(C)C)C(=O)N[C@@H](CO)C(=O)N[C@@H](CC(N)=O)C(=O)N[C@H](C(=O)N[C@@H](CC(C)C)C(=O)NCC(=O)N[C@@H](CCSC)C(=O)NCC(=O)N[C@@H](CCCCN)C(=O)N[C@@H](CCCCN)C(=O)N[C@H](C(=O)N[C@H](C(=O)N[C@H]1CSSC[C@@H](C(=O)O)NC(=O)[C@H](CC(C)C)NC(=O)CNC(=O)[C@H](CO)NC(=O)[C@H](CC(C)C)NC(=O)CNC1=O)C(C)C)[C@@H](C)CC)C(C)C` [GILSNVLGMGKKIVCGLSGLC], for which the MIC is over 100 µM against Staphylococcus aureus and 70 µM (≈ 144 µg/mL) against Escherichia coli.

As for `CC[C@H](C)[C@H](NC(=O)[C@H](Cc1ccccc1)NC(=O)[C@H](CO)NC(=O)[C@H](CCCCN)NC(=O)[C@H](Cc1c[nH]c2ccccc12)NC(=O)[C@@H](N)CCCCN)C(=O)N[C@@H](CCCCN)C(=O)N[C@@H](CCCCN)C(=O)N[C@@H](C)C(=O)N[C@@H](CCCCN)C(=O)N[C@H](C(=O)N[C@@H](CO)C(=O)N[C@@H](Cc1ccccc1)C(=O)N[C@@H](CC(C)C)C(=O)N[C@@H](Cc1cnc[nH]1)C(=O)N[C@@H](CO)C(=O)N[C@@H](C)C(=O)N[C@@H](CCCCN)C(=O)N[C@@H](CCCCN)C(=O)N[C@@H](Cc1ccccc1)C(N)=O)[C@@H](C)O` [KWKSFIKKAKTSFLHSAKKF], the MIC against Pseudomonas aeruginosa amounted to 10.4 µM (≈ 25 µg/mL).

Turning to `CC[C@H](C)[C@H](NC(=O)[C@@H]1CCCN1C(=O)[C@H](CC(C)C)NC(=O)[C@@H](N)CC(C)C)C(=O)N[C@H](C(=O)NCC(=O)N[C@@H](CC(N)=O)C(=O)N[C@@H](CC(C)C)C(=O)N[C@@H](CC(C)C)C(=O)N[C@@H](CCCCN)C(=O)N[C@@H](CO)C(=O)N[C@@H](CC(C)C)C(=O)N[C@@H](CC(C)C)C(=O)NCC(=O)N[C@@H](Cc1c[nH]c2ccccc12)C(=O)N[C@@H](CCCCN)C(=O)N[C@@H](CCCN=C(N)N)C(=O)N[C@@H](CCCCN)C(=O)N[C@@H](CCCN=C(N)N)C(=O)N[C@@H](Cc1ccccc1)C(=O)NCC(N)=O)C(C)C` [LLPIVGNLLKSLLGWKRKRFG], the MIC in assay [3] was 5 µM and 12.5 µM; in assay [4] it was 4 µM and 8 µM.

Turning to `CC[C@H](C)[C@H](NC(=O)[C@H](CS)NC(=O)[C@H](CCCN=C(N)N)NC(=O)[C@@H](N)CC(C)C)C(=O)N[C@@H](C)C(=O)N[C@@H](CC(C)C)C(=O)N[C@@H](CCCN=C(N)N)C(=O)N[C@@H](CCCCN)C(=O)N[C@@H](CCCCN)C(N)=O` [LRCIALRKK], the MIC against Staphylococcus aureus is over 58.2 µM; with Escherichia coli it was 20.6 µM (≈ 22.6 µg/mL).

Turning to `CC(=O)N[C@@H](CCC(N)=O)C(=O)N[C@@H](C)C(=O)N[C@@H](CCCCN)C(=O)O` [QAK], the MIC amounted to 21.7 µM (≈ 8.41 µg/mL) in assay [1] and 10.9 µM (≈ 4.21 µg/mL) in assay [2].

As to `CC(C)[C@H](NC(=O)[C@H](Cc1c[nH]c2ccccc12)NC(=O)[C@H](CCCCN)NC(=O)[C@@H](N)CCCN=C(N)N)C(=O)N[C@@H](Cc1ccc(O)cc1)C(=O)N[C@@H](Cc1c[nH]c2ccccc12)C(=O)N[C@@H](CCCN=C(N)N)C(=O)N[C@@H](CC(N)=O)C(=O)N[C@@H](CCCN=C(N)N)C(=O)O` [RKWVYWRNR], the MIC in assay [1] was 22.9 µM (≈ 31.3 µg/mL); in assay [2], 91.7 µM (≈ 125 µg/mL).

`CC(C)C[C@H](NC(=O)[C@H](Cc1ccc(O)cc1)NC(=O)[C@H](CCCCN)NC(=O)[C@H](Cc1c[nH]c2ccccc12)NC(=O)[C@H](Cc1ccccc1)NC(=O)[C@H](CCCCN)NC(=O)[C@H](CCCN=C(N)N)NC(=O)[C@@H](N)Cc1c[nH]c2ccccc12)C(=O)N[C@@H](CCCCN)C(N)=O` [WRKFWKYLK]: the MIC was 22.9 µM (≈ 31 µg/mL) in assay [1]; 22.9 µM (≈ 31 µg/mL) in assay [2]; 185 µM and > 92.3 µM in assay [3].
